Laboratory results: patent US12630507B2, “Pyrrolidine amide derivative salt and use thereof” (SUNSHINE LAKE PHARMA CO., LTD., priority 2020, dated 2026)
One block for each compound: values may come before it.

What was measured:
[1] = Pharmacokinetics test, oral capsules, plasma concentration by LC-MS/MS; assay type: in vivo; conditions: male Beagle dogs, oral capsule, 5 mg/kg
Procedure: The test samples (that is, the salt of the present invention or its crystal form, or the compound represented by formula (I) of the present invention) were filled into capsules for oral administration.
Three […] male Beagle dogs were taken orally administered capsules containing the test sample at a dose of 5 mg/kg, and blood was collected at time points of 0.25, 0.5, 1.0, 2.0, 5.0, 7.0 and 24 h. Standard curve was plotted based on concentrations of the samples in a suitable range, the concentration of the test sample in the plasma sample was measured and quantified by AB SCIEX API5500 LC-MS/MS at MRM mode. Pharmacokinetic parameters were calculated according to drug concentration-time curve using a noncompartmental method by WinNonLin 6.3 software.

[2] = Solubility test in water by HPLC; assay type: physicochemical; conditions: for Concentration of compound represented by formula (I) in saturated aqueous solution: ultrapure water, 37 °C, shaking for 24 h, filtrate by HPLC
Procedure: The solubility of the present invention was determined using an Agilent 1200 High Performance Liquid Chromatograph DAD/VWD detector with an Agilent XDB-C18 model (4.6×50 mm, 5 μm). Detection wavelength was 266 nm, flow rate was 1.0 mL/min, the column temperature was 35° C., mobile phase A: acetonitrile/0.01 M ammonium acetate=[…] (V/V), analysis methods: acetonitrile/mobile phase A=70/30 (V/V), running time was 10 minutes.
The test samples were placed in organic ultrapure water at 37 O(C to prepare a supersaturated solution. After shaking for 24 h, the mixture was filtered with an aqueous filter membrane to obtain the filtrate, and the solubility of the target sample in water was detected by HPLC. Results are as shown in Table 5.

MAO-B = target: T1, MAO-B (Homo sapiens, UniProt P27338); conditions: as disclosed in WO 2019170115 A1; cited from earlier work
T1 sequence (P27338 1-520): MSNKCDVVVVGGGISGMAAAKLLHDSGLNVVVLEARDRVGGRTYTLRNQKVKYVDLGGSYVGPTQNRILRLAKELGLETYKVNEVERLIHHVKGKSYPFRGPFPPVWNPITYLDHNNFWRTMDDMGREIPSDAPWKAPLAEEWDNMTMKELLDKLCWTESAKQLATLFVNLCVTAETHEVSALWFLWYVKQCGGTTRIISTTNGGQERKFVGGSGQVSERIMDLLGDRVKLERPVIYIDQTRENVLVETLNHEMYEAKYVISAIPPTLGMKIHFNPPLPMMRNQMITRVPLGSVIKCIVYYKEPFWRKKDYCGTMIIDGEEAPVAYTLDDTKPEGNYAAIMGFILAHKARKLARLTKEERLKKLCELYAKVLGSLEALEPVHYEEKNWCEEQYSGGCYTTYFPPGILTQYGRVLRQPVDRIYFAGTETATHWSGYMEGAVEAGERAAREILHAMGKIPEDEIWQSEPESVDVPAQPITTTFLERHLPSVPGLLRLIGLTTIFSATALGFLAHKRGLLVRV

[3] = Stability test (high temperature, high humidity, light); assay type: physicochemical; conditions: for Outward (appearance): cell wraps r9-r11: Off-white solid
Procedure: • (1) High temperature test: a batch of the test samples were taken into the flat weighing bottles, spread into a thin layer with a thickness of ≤5 mm. The above weighing bottles were stored at 40° C.±2° C./75%±5% RH and 60° C.±2° C./75% f 5% RH for 30 days in an incubator. On the 5th, 10th, and 30th days, samples were taken for detection according to the key stability inspection items: the color change of the sample was observed, the purity of the sample was determined by HPLC. • (2) High humidity test: a batch of the test samples were taken into the flat weighing bottles, spread into a thin layer with a thickness of ≤5 mm, and stored for 30 days at 25° C., RH 75%±5% or RH 90%±5%. On the 5th, 10th, and 30th days, samples were taken for detection according to the key stability inspection items: the color change of the sample was observed, the purity of the sample was determined by HPLC. • (3) Light test: a batch of the test samples were taken into the flat weighing bottles, spread into a thin layer of ≤5 mm thick, and placed in a light box (with an ultraviolet lamp) with an open mouth. The test samples were stored under the condition of illuminance of 4500±500 lx and ultraviolet light ≥0.7 w·h/m^2 for 30 days. On the 5th, 10th, and 30th days, samples were taken for detection according to the key stability inspection items: the color change of the sample was observed, the purity of the sample was determined by HPLC.

[4] = Hygroscopicity test (weight gain, 25° C., saturated ammonium chloride desiccator, 24 hours); assay type: physicochemical
Procedure: • 1) A dry stoppered glass weighing bottle (50 mm in outer diameter, 15 mm in height) was placed in a constant temperature desiccator (the lower part was placed in a saturated ammonium chloride solution) at 25° C.±1° C. the day before, and accurately weighed (m1). • 2) An appropriate amount of the test sample was taken and spread in the above weighing bottle. The thickness of the test sample was generally about 1 mm, and it was precisely weighed (m2). • 3) The weighing bottle was opened and placed together with the bottle cap under the above constant temperature and humidity conditions for 24 hours. • 4) The weighing bottle was closed with the bottle cap, and accurately weighed (m3).

[5] = High humidity (25° C., RH 75% ± 5%), 5 days
[6] = High humidity (25° C., RH 75% ± 5%), 10 days
[7] = High humidity (25° C., RH 75% ± 5%), 30 days
[8] = High humidity (25° C., RH 90% ± 5%), 5 days
[9] = High humidity (25° C., RH 90% ± 5%), 10 days
[10] = High humidity (25° C., RH 90% ± 5%), 30 days
[11] = High temperature (40° C., RH 75% ± 5%), 5 days
[12] = High temperature (40° C., RH 75% ± 5%), 10 days
[13] = High temperature (40° C., RH 75% ± 5%), 30 days
[14] = High temperature (60° C., RH 75% ± 5%), 5 days
[15] = High temperature (60° C., RH 75% ± 5%), 10 days
[16] = High temperature (60° C., RH 75% ± 5%), 30 days
[17] = Light (4500±500 lx, ultraviolet), 5 days
[18] = Light (4500±500 lx, ultraviolet), 10 days
[19] = Light (4500±500 lx, ultraviolet), 30 days
[20] = 25° C.±1° C., saturated ammonium chloride solution, 24 hours

SMILES: NC(=O)[C@@H]1C[C@H](F)CN1Cc1ccc(OCc2cccc(F)c2)cc1 [Compound represented by formula (I), (2S,4S)-4-fluoro-1-(4-(3-fluorobenzyloxy)benzyl)pyrrolidine-2-carboxamide]
AUClast [1]: 548 ng·h/mL
Cmax [1]: 256 ng/mL
Tmax [1]: 0.8 h
Water solubility (in words) [2]: poor water solubility
Concentration of compound represented by formula (I) in saturated aqueous solution [2]: 11.40 µg/mL
Inhibitory effect on the activity of MAO-B (MAO-B): good inhibitory effect

SMILES: NC(=O)[C@@H]1C[C@H](F)CN1Cc1ccc(OCc2cccc(F)c2)cc1 [Example 2, (2S,4S)-4-fluoro-1-(4-(3-fluorobenzyloxy)benzyl)pyrrolidine-2-carboxamide]
AUClast [1]: 939 ng·h/mL
Cmax [1]: 415 ng/mL
Tmax [1]: 1 h
Purity ([3]; 0 day): 99.74%
Outward (appearance) ([3]; 0 day): Off-
Purity [3, 5]: 99.80%
Outward (appearance) [3, 5]: Off-
Purity [3, 6]: 99.69%
Outward (appearance) [3, 6]: Off-
Purity [3, 7]: 99.72%
Outward (appearance) [3, 7]: Off-
Purity [3, 8]: 99.80%
Outward (appearance) [3, 8]: Off-
Purity [3, 9]: 99.69%
Outward (appearance) [3, 9]: Off-
Purity [3, 10]: 99.73%
Outward (appearance) [3, 10]: Off-
Purity [3, 11]: 99.74%
Outward (appearance) [3, 11]: Off-
Purity [3, 12]: 99.70%
Outward (appearance) [3, 12]: Off-
Purity [3, 13]: 99.68%
Outward (appearance) [3, 13]: Off-
Purity [3, 14]: 99.72%
Outward (appearance) [3, 14]: Off-
Purity [3, 15]: 99.64%
Outward (appearance) [3, 15]: Off-
Purity [3, 16]: 99.68%
Outward (appearance) [3, 16]: Off-
Purity [3, 17]: 99.70%
Outward (appearance) [3, 17]: Off-
Purity [3, 18]: 99.64%
Outward (appearance) [3, 18]: Off-
Purity [3, 19]: 99.64%
Outward (appearance) [3, 19]: Off-
Change of appearance and purity ([3]; conditions of high temperature, high humidity and light, up to 30 days): no obvious change
Hygroscopicity [4]: no or almost no hygroscopicity
Conclusion (hygroscopicity feature) [4, 20]: No or almost none
Hygroscopicity gain [4, 20]: 0.12%
Concentration of compound represented by formula (I) in saturated aqueous solution [2]: 21161.79 µg/mL

SMILES: NC(=O)[C@@H]1C[C@H](F)CN1Cc1ccc(OCc2cccc(F)c2)cc1 [Example 10, (2S,4S)-4-fluoro-1-(4-(3-fluorobenzyloxy)benzyl)pyrrolidine-2-carboxamide]
AUClast [1]: 470 ng·h/mL
Cmax [1]: 162 ng/mL
Tmax [1]: 2.2 h
Concentration of compound represented by formula (I) in saturated aqueous solution [2]: 1571.18 µg/mL

Results, then the compound that gave them:

AUClast [1]: 378 ng·h/mL
Cmax [1]: 143 ng/mL
Tmax [1]: 0.7 h
Concentration of compound represented by formula (I) in saturated aqueous solution [2]: 4719.01 µg/mL
SMILES: NC(=O)[C@@H]1C[C@H](F)CN1Cc1ccc(OCc2cccc(F)c2)cc1 [Example 8, (2S,4S)-4-fluoro-1-(4-(3-fluorobenzyloxy)benzyl)pyrrolidine-2-carboxamide]

AUClast [1]: 450 ng·h/mL
Cmax [1]: 151 ng/mL
Tmax [1]: 3.4 h
Concentration of compound represented by formula (I) in saturated aqueous solution [2]: 575.35 µg/mL
SMILES: NC(=O)[C@@H]1C[C@H](F)CN1Cc1ccc(OCc2cccc(F)c2)cc1 [Example 9, (2S,4S)-4-fluoro-1-(4-(3-fluorobenzyloxy)benzyl)pyrrolidine-2-carboxamide]
